# Measurements: patent US11613531B2, “Inhibitors of RHO associated coiled-coil containing protein kinase” (Kadmon Corporation, LLC, priority 2017, dated 2023)
# What was measured:
# [1] = test system: Bleomycin induced lung fibrosis in mice; assay: Prophylactic bleomycin induced lung fibrosis model; format: in vivo; conditions: 21-day treatment
# Text: FIG. 9a. ROCK inhibitor is active in a mouse model of pulmonary fibrosis. Representative images of lung sections stained with Masson's trichrome to visualized fibrosis in the lungs of mice following 21-day treatment with ROCK inhibitor in the bleomycin-induced lung injury model.
# FIG. 9b. […] Ashcroft fibrotic indices, α-smooth muscle actin (αSMA) percentage positive area and total leukocytes count in bronchoalveolar lavage fluid obtained from lungs of mice in the bleomycin lung fibrosis model treated with compound of Example 192.
# Prophylactic Efficacy of Compounds in Bleomycin Induced Lung Fibrosis in Mice
# Male C57B/L6 mice were ear tagged and weighed prior to the start of the study. Treatment group animals were treated with the compound on day −1 pre-bleomycin and all subsequent days post-bleomycin administration. On day 0, animals in disease groups received 1.5 U/kg dose of bleomycin via oropharyngeal route. […] Animals were closely monitored daily till the end of the study. […] Blood samples were used for plasma preparation; total leukocytes were counted in BAL fluid; and lungs were fixed in 10% neutral buffered formalin for histopathological analysis.
# Based on the strong anti-fibrotic cellular activity of ROCK inhibitors of this invention, the ability of such inhibitors to attenuate fibrosis in the in vivo setting was assessed in several mouse models of disease. […]
# [2] = target: Recombinant ROCK2 (amino acids 1-552) (Homo sapiens (Human), UniProt O75116); assay: Z′-Lyte kinase assay, ROCK2; format: biochemical; conditions: 9 points 2-fold serial dilution
# Recombinant ROCK2 (amino acids 1-552), sequence (O75116 1-552): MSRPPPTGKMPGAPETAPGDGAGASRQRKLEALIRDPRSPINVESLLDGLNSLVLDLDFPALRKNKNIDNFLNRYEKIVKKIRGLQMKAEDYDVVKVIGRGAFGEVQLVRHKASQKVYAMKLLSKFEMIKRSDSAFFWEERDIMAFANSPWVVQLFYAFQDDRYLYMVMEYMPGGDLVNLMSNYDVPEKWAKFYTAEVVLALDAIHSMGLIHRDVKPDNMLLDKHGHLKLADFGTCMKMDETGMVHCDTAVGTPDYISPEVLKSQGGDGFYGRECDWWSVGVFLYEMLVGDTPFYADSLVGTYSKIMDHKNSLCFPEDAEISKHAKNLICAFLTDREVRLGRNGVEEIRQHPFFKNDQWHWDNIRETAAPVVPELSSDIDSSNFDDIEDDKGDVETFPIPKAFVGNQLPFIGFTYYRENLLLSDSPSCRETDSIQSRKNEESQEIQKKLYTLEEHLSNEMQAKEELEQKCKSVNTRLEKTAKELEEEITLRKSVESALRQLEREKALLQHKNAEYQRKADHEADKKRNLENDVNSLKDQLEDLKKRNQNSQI
# In short: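 Recombinant human ROCK1 (aa 1-535) or ROCK2 (aa 1-552) activity read by Z′-Lyte kinase assay. Percent inhibition at 1 μM compound was normalized to DMSO control; IC50 from 9-point 2-fold serial dilutions by nonlinear regression.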
# [3] = test system: Bleomycin induced lung fibrosis in mice; assay: Therapeutic bleomycin induced lung fibrosis model; format: in vivo
# Text: FIG. 10a. ROCK inhibitor is therapeutically active in a mouse model of pulmonary fibrosis. Representative images of lung sections stained with Masson's trichrome to visualized fibrosis in the lungs of mice following therapeutic treatment with ROCK inhibitor in the bleomycin-induced lung injury model.
# FIG. 10b. Quantitation of the decrease in the fibrosis index in the histopathological analysis of the images from ROCK inhibitor and vehicle treated mice in the bleomycin-induced lung injury model.
# FIG. 10c. ROCK target engagement analysis in the lung tissue from the bleomycin-induced pulmonary fibrosis model.
# Therapeutic Efficacy of Compounds in Bleomycin Induced Lung Fibrosis in Mice
# Male C57B/L6 mice were housed for acclimation for no less than 7 days. After acclimation period, animals were randomly assigned to treatment groups. On day 0, mice were anesthetized with 5% isoflurane by inhalation for 10-15 mins and then suspended by their front teeth on a wire attached to a fixed animal operating plate. 50 μL of saline or bleomycin solution was administered via intratracheal instillation. […]
# The activity of ROCK inhibitors in attenuating pulmonary fibrosis in a therapeutic dosing setting was assessed in a bleomycin-induced model, following intratracheal bleomycin installation to induce lung tissue damage and consequent fibrosis of the lung. […]
# The improvement in the overall lung fibrosis was quantitated for each animal in the control and treatment groups. […]
# In addition to the determination of the therapeutic activity of ROCK inhibition in the pulmonary fibrosis model, target engagement and the extent of ROCK inhibition in the lung of drug treated animals were also determined. Protein extracts were prepared from the snap frozen lung samples and separated on SDS-PAGE and analyzed by Western blotting. ROCK kinase direct target, phosphorylated myosin-binding subunit of myosin phosphatase (MYPT, pT853) and a ROCK pathway regulated protein CCN1 expression levels were detected. […] Western blot results were quantitated by the Image J densitometry program. […]
# [4] = bleomycin treated mouse lungs, western blot
structure (smiles),measurement,setting,value
"Clc1cnc(N2C3CCC2CNC3)nc1Nc1ccc2[nH]ncc2c1 [Example 192, N-(2-(3,8-diazabicyclo[3.2.1]octan-8-yl)-5-chloropyrimidin-4-yl)-1H-indazol-5-amine]","activity in bleomycin lung fibrosis model (Ashcroft fibrotic indices, αSMA percentage positive area, total leukocytes count in BAL fluid)",[1],positive activity
same,IC50,[2],12 nM
same,CCN1 total protein levels in lung,[3]; [4],reduction
same,phosphorylated MYPT (pT853) levels in lung,[3]; [4],reduction
same,collagen amounts in the lungs,"[3]; mice, therapeutic dosing from day 7, Masson's trichrome-stained sections",significantly lower
